Experimental data from patent publication US7504400B2, “MTP inhibiting aryl piperydines or piperazines substituted with 5-membered heterocycles” (Janssen Pharmaceutica N.V., priority 2004, dated 2009).
Counter-ions that a name gives are not always drawn.

Test system: Secretion of ApoB
Experiment: Quantification of the secretion of ApoB in HepG2 cells
Format: cell-based
Details: Homo sapiens, HepG2, 24 h, 24 hours of incubation with test compound, immunoprecipitation of apoB from medium, read-out: pIC50 value (=-log IC50 value), secretion of ApoB (converted)
Outline: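 At 70% confluency, HepG2 cells in MEM with 10% FCS received compound or DMSO carrier (0.4% final) for 24 h. Secreted apoB in cleared medium immunoprecipitated with sheep anti-apoB then rabbit anti-sheep antibody (24 h each, 8° C); pellet radioactivity counted by liquid scintillation; IC50 expressed as pIC50.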

IC50 [nM]	SMILES
31.6 to 316	CC(C)n1ncn(-c2ccc(N3CCN(C(C(=O)Nc4ccc5c(c4)CCC5)c4cccnc4)CC3)cc2)c1=O (stereo not shown) [Compound 209]
316 to 3160	COC(=O)C(c1ccc(Br)cc1)N1CCN(c2ccc(-n3cnn(C(C)C)c3=O)cc2)CC1 (stereo not shown) [Compound 329]
31.6 to 316	CCCC(C(=O)Nc1ccc2c(c1)CCC2)N1CCN(c2ccc(-n3cnn(C(C)C)c3=O)cc2)CC1 (stereo not shown) [Compound 177]
31.6 to 316	CCOC(=O)[C@H](c1ccccc1)N1CCN(c2ccc(-n3ccn([C@H](C)c4cccc(C(F)(F)F)c4)c3=O)cc2)CC1 (relative stereo) [Compound 269]
31.6 to 316	CCCNC(=O)C(CN1CCN(c2ccc(-n3cnn(C(C)C)c3=O)cc2)CC1)c1ccccc1 (stereo not shown) [Compound 128]
31.6 to 316	COC(=O)C(c1ccccc1Cl)N1CCC(c2ccc(-n3cnn(C(C)C)c3=O)cc2)CC1 (stereo not shown) [Compound 319]
316 to 3160	CCOC(=O)CCNC(=O)CC1CCN(c2ccc(-n3cnn(C(C)c4ccccc4)c3=O)cc2)CC1 (stereo not shown) [Compound 402]
316 to 3160	CC(C)n1cnn(-c2ccc(N3CCN(C(C(=O)NCC(F)(F)F)c4ccccc4)CC3)cc2)c1=O (stereo not shown) [Compound 122]
316 to 3160	CC(C)n1ncn(-c2ccc(N3CCN(C(C(=O)NCc4ccc(N)cc4)c4ccccc4)CC3)cc2)c1=O (stereo not shown) [Compound 126]
31.6 to 316	CCOC(=O)C(c1ccccc1)C1CCN(c2ccc(-n3ccn([C@H](C)C4CCCCC4)c3=O)cc2)CC1 (stereo partly shown) [Compound 262]
31.6 to 316	CCNC(=O)C(c1ccccc1)N1CCC(c2ccc(-n3cnn(C(C)C)c3=O)cc2)CC1 (stereo not shown) [Compound 139]
< 31.6	CC(C)n1ncn(-c2ccc(N3CCN(C(C(=O)Nc4ccc5c(c4)CC(NC(=O)OC(C)(C)C)C5)c4ccccc4)CC3)cc2)c1=O (stereo not shown) [Compound 306]
31.6 to 316	CCOC(=O)C(c1ccccc1)N1CCC(c2ccc(-n3ccn(C(C)c4ccccc4)c3=O)cc2)CC1 (stereo not shown) [Compound 221]
31.6 to 316	CCOC(=O)C(c1ccccc1)N1CCC(c2ccc(-n3ccn([C@H](C)c4ccc(Cl)cc4)c3=O)cc2)CC1 (stereo partly shown) [Compound 235]
316 to 3160	CCOC(=O)CC(NC(=O)C(c1ccccc1)N1CCN(c2ccc(-n3ccn(C(C)C)c3=O)cc2)CC1)c1ccc2c(c1)OCO2 (stereo not shown) [Compound 358]
316 to 3160	CCOC(=O)C(c1ccccc1)N1CCN(c2ccc(-n3cnn(C(C)c4ccccc4)c3=O)cc2)CC1 (stereo not shown) [Compound 265]
31.6 to 316	CCOC(=O)C(c1ccccc1)N1CCC(c2ccc(-n3ccn([C@H](C)c4cccc(C(F)(F)F)c4)c3=O)cc2)CC1 (stereo partly shown) [Compound 276]
316 to 3160	CCCNC(=O)C(c1ccccc1)N1CCN(c2ccc(-n3nc(-c4ccccc4)n(C(C)C)c3=O)cc2)CC1 (stereo not shown) [Compound 30]

IC50 [nM]	SMILES
31.6 to 316	CCOC(=O)c1cc(CNC(=O)CC2CCN(c3ccc(-n4cnn(C(C)C)c4=O)cc3)CC2)ccc1C [Compound 382]
31.6 to 316	CCCNC(=O)C(c1ccccc1)N1CCN(c2ccc(-n3cnn(C(C)C)c3=O)cc2)CC1 (stereo not shown) [Compound 164]
316 to 3160	CC(C)n1ncn(-c2ccc(N3CCN(CCCC(C(=O)Nc4ccccc4)c4ccccc4)CC3)cc2)c1=O (stereo not shown) [Compound 160]
316 to 3160	CC(C)n1ncn(-c2ccc(N3CCN(C(C(=O)Nc4ccccc4O)c4ccccc4)CC3)cc2)c1=O (stereo not shown) [Compound 56]
< 31.6	CCOC(=O)c1cc(NC(=O)C(c2ccccc2)N2CCC(c3ccc(-n4cnn(C(C)C)c4=O)cc3)CC2)ccc1C (stereo not shown) [Compound 349]
316 to 3160	CC(C)n1ncn(-c2ccc(N3CCN(CC(C(=O)NC4CC4)c4ccccc4)CC3)cc2)c1=O (stereo not shown) [Compound 104]
316 to 3160	COC(=O)C(c1ccc(Cl)cc1)N1CCC(c2ccc(-n3cnn(C(C)C)c3=O)cc2)CC1 (stereo not shown) [Compound 321]
316 to 3160	COC(=O)C(c1ccc(Br)cc1)N1CCC(c2ccc(-n3cnn(C(C)C)c3=O)cc2)CC1 (stereo not shown) [Compound 323]
316 to 3160	CC(C)n1ncn(-c2ccc(N3CCN(C(C(=O)NCc4ccccn4)c4ccccc4)CC3)cc2)c1=O (stereo not shown) [Compound 70]
316 to 3160	CCCNC(=O)C(c1ccccc1)C1CCN(c2ccc(-n3cnn(CCC)c3=O)cc2)CC1 (stereo not shown) [Compound 149]
316 to 3160	O=C(NCc1ccccc1)C(c1ccccc1)N1CCN(c2ccc(-n3nc(-c4ccccc4)n(-c4ccccc4)c3=O)cc2)CC1 (stereo not shown) [Compound 25]
31.6 to 316	CCOC(=O)C(c1ccccc1)N1CCC(c2ccc(-n3ccn([C@H](C)c4ccc(Br)cc4)c3=O)cc2)CC1 (stereo partly shown) [Compound 229]
31.6 to 316	COC(=O)C(c1ccccc1)N1CCN(c2ccc(-n3cnn(C(C)c4ccccc4)c3=O)cc2)CC1 (stereo not shown) [Compound 204]
31.6 to 316	CCOC(=O)[C@H](c1ccccc1)N1CCN(c2ccc(-n3ccn(C(C)c4cccc(F)c4F)c3=O)cc2)CC1 (stereo in doubt) [Compound 338]
316 to 3160	CCOC(=O)[C@@H](c1ccccc1)N1CCN(c2ccc(-n3ccn([C@@H](C)c4ccccc4F)c3=O)cc2)CC1 (stereo in doubt) [Compound 275]
316 to 3160	CCC(C)n1ncn(-c2ccc(N3CCN(C(C(=O)NCCO)c4ccccc4)CC3)cc2)c1=O (stereo not shown) [Compound 94]
31.6 to 316	CCOC(=O)C(c1ccccc1)C1CCN(c2ccc(-n3ccn([C@H](C)c4ccc(C)cc4)c3=O)cc2)CC1 (stereo partly shown) [Compound 253]
316 to 3160	CCCCNC(=O)C(c1ccccc1)N1CCN(c2ccc(-n3cnn(C(C)C)c3=O)cn2)CC1 (stereo not shown) [Compound 42]

SMILES	IC50 [nM]
CC(C)n1ncn(-c2ccc(N3CCN(CCC(C(=O)N(C)C)(c4ccccc4)c4ccccc4)CC3)cc2)c1=O [Compound 147]	316 to 3160

Test system: not given
Experiment: not given
Details: not given

melting point [°C]	SMILES
198 to 200	CC(C)n1ncn(-c2ccc(N3CCN(C(C(=O)Nc4ccc5c(c4)CCC5)c4cccnc4)CC3)cc2)c1=O (stereo not shown) [Compound 209]
165	CCCN(CCC)C(=O)C(CCN1CCN(c2ccc(-n3cnn(C(C)C)c3=O)cc2)CC1)c1ccccc1 (stereo not shown) (as salt: salt) [Compound 2]
142 to 143	CCOC(=O)C(c1cccnc1)N1CCN(c2ccc(-n3cnn(C(C)C)c3=O)cc2)CC1 (stereo not shown) [Compound 302]
